The values that follow come from patent US5618795A, “Dibekacin derivatives and arbekacin derivatives active against resistant bacteria, and the production thereof” (Zaidan Hojin Biseibutsu Kagaku Kenkyu Kai, priority 1992, dated 1997).

The conditions of data set [1]: P. J. L. Daniels et al.; cited from earlier work.
The nature of the next data set: Solubility in water. Format: physicochemical.
In another data set the test system is B. cereus ATCC10702. As to the kind of experiment: MIC by standard serial dilution method on Muller-Hinton's agar. Format: cell-based. The following applies: Bacillus cereus. The procedure:
(§1) Minimum growth inhibitory concentrations (MIC) of each of 2"-amino-2"-deoxyarbekacin (Compound Ia), 2"-amino-5,2"-dideoxyarbekacin (Compound Ib), 2"-amino-2"-deoxydibekacin (Compound IIa) and 2"-amino-5,2"-dideoxydibekacin (Compound IIb) against various bacteria (20 strains) and against clinically isolated strains of MRSA (50 strains) were determined by standard serial dilution method on Muller-Hinton's agar medium (as estimated after cultivating at 27° C. for 18 hours), and the test results obtained are shown in TABLE 3 and TABLE 4, respectively.

The test system of another data set is E. coli K-12 ML1410. The description is as above. Format: cell-based. To be noted: Escherichia coli, K12ML1410; Table 3; 27° C., 18 hours. The procedure: as §1
Another data set has as its system Escherichia coli NIHJ. The description is as above. The following applies: Table 3, 27° C., 18 hours. Format: cell-based. The procedure:
as §1
(§2) Minimum growth inhibitory concentrations (MIC) of each of 2"-amino-5,2"-dideoxy-5-epi-fluoroarbekacin (Compound XVIa) and 2"-amino-5,2"-dideoxy-5-epi-aminoarbekacin (Compound XVIb) against various bacteria (18 strains) and against clinically isolated strains of MRSA (50 strains) were determined by standard serial dilution method on Muller-Hinton's agar medium (as estimated after cultivation at 27° C. for 18 hours), and the test results obtained are shown in TABLE 5 and TABLE 6, respectively.

In the next data set the test system is E. coli JR66/W677. The description is as above. Format: cell-based. The following applies: Escherichia coli, JR66/W677, 18 h. The protocol:
as §1, §2

In another data set the test system is Salmonella typhi T-63. Described as above. Format: cell-based. To be noted: Salmonella enterica, Table 3, 27° C., 18 hours. The procedure:
as §1, §2

In the next data set the test system is Proteus vulgaris OX19. Described as above. To be noted: OX19, Table 3, 27° C., 18 hours, read-out: MIC. Format: cell-based. The protocol: as §1, §2
Data set [2] concerns Providencia rettgeri GN311. Described as above. Format: cell-based. To be noted: GN311, Table 3, 27° C., 18 hours, read-out: MIC. The protocol:
as §1, §2

Data set [3] deals with Klebsiella pneumoniae PCI602. The data set is described as above. Format: cell-based. To be noted: PCI602, Table 3, 27° C., 18 hours, read-out: MIC. The protocol:
as §1, §2

The next data set deals with P. aeruginosa H9. The data set is described as above. Format: cell-based. The following applies: Pseudomonas aeruginosa, H9; Table 3; 27° C., 18 hours; read-out: MIC. The protocol: as §1, §2
Another data set deals with P. aeruginosa TI-13. The description is as above. The following applies: Pseudomonas aeruginosa, TI13, 18 h. Format: cell-based. The procedure: as §1, §2
For a further data set, the system named is S. epidermidis 109. The description is as above. Format: cell-based. The following applies: Staphylococcus epidermidis, 109; Table 3; 27° C., 18 hours; read-out: MIC. The procedure:
as §1, §2

For data set [4], the system named is Pseudomonas aeruginosa A3. Described as above. Format: cell-based. To be noted: A3, Table 3, 27° C., 18 hours, read-out: MIC. The protocol:
as §1, §2

Data set [5] has as its system Shigella dysenteriae JSI1910. Described as above. Format: cell-based. To be noted: JSI1910, 18 h. The procedure:
as §1, §2

The next data set relates to P. aeruginosa PST1. Described as above. Format: cell-based. The following applies: Pseudomonas aeruginosa, Table 3, 27° C., 18 hours. The protocol:
as §1, §2

Data set [6] concerns Staphylococcus aureus FDA209P. The description is as above. Format: cell-based. The following applies: Table 3, 27° C., 18 hours. The procedure:
as §1, §2

The subject of a further data set is S. aureus Smith. The data set is described as above. Format: cell-based. To be noted: Staphylococcus aureus; Table 3; 27° C., 18 hours. The procedure: as §1, §2
Another data set concerns E. coli K-12 LA290 R55. Described as above. Format: cell-based. To be noted: Escherichia coli, K12LA290R55, 18 h. The protocol: as §1, §2
In another data set the test system is Serratia marcescens. The data set is described as above. Format: cell-based. The procedure: as §1, §2
Another data set concerns Bacillus subtilis PCI219. Described as above. Format: cell-based. The following applies: Table 3, 27° C., 18 hours. The procedure:
as §1, §2

In a further data set the test system is E. coli K-12 ML1629. Described as above. Format: cell-based. The following applies: Escherichia coli, K12ML1629; Table 3; 27° C., 18 hours; read-out: MIC. The procedure:
as §1, §2

Data set [7] relates to gram-positive and gram-negative bacteria. As to the kind of experiment: Antibacterial activities against gram-positive and gram-negative bacteria. Format: cell-based. The protocol:
as §1, §2

For data set [8], the system named is clinically isolated strains of MRSA. In words: Antibacterial MIC spectra against 50 clinically isolated strains of MRSA. Format: cell-based, methicillin-resistant Staphylococcus aureus. To be noted: Staphylococcus aureus; for MIC50: 50% of the 50 MRSA strains inhibited, read-out: MIC50; for MIC: read-out: Antibacterial MIC spectra. The protocol: as §1
Note:- MIC50 or MIC90 represents the concentration of tested
active compound at which 50% or 90% of the total numbers of the bacterial
strains tested were inhibited from their growth. DKB denotes dibekacin,
as §2

The subject of another data set is mice. As to the kind of experiment: Acute toxicity, single intravenous administration to mice. Format: in vivo. To be noted: mice / mammals. From the text:
(§3) 50% Lethal dosages (LD50, observations for two weeks) of the new compounds of this invention as estimated upon single intravenous administration to mice (ICR-strain, 4 weeks old, female) are as follows:
(§4) 50% Lethal dosages (LD50, observations for two weeks) of the new compounds of general formula (XVI) according to the seventh aspect of this invention as estimated upon single intravenous administration to mice (ICR-strain, 4 weeks old, female) are as follows: […]

Assay in data set [9]: as above
Format: in vivo. The following applies: mouse, in vivo.
Description: as §3, §4

Data set [10] deals with strain of MRSA which exhibits a moderate resistance to arbekacin. As to the kind of experiment: Minimum growth inhibitory concentration against MRSA strain moderately resistant to arbekacin. Format: cell-based, methicillin-resistant Staphylococcus aureus. The following applies: Staphylococcus aureus, read-out: minimum growth inhibitory concentration of arbekacin.
[11] abbreviates: range over 50 clinically isolated strains of MRSA, 27° C., 18 hours.
The mark [12] stands for this setting: 90% of the 50 MRSA strains inhibited, 27° C., 18 hours, read-out: MIC90.

Converted amounts (≈) assume the structure as drawn. Where two headings read alike, the source gives them in different places. Where only a bound is given, the exact number is not on record here.

Turning to `CN[C@@H]1[C@@H](O)[C@@H](O[C@@H]2[C@H](N)[C@H](O[C@H]3OC(CN)=CC[C@H]3N)[C@@H](N)C[C@H]2N)OC[C@]1(C)O` [5-epi-amino-5-deoxysisomicin], the “antibacterial activity (in words)” value in data set [1] is listed as “good antibacterial activity”.

Consider `CN[C@@H]1[C@@H](O)[C@@H](O[C@@H]2[C@H](F)[C@H](O[C@H]3OC(CN)=CC[C@H]3N)[C@@H](N)C[C@H]2N)OC[C@]1(C)O` [5-epi-fluoro-5-deoxysisomicin], for which the “antibacterial activity (in words)” value in [1] is recorded as “good antibacterial activity”.

As to `NCC[C@H](O)C(=O)N[C@@H]1C[C@H](N)[C@@H](O[C@H]2O[C@H](CN)CC[C@H]2N)C[C@H]1O[C@H]1O[C@H](CO)[C@@H](O)[C@H](N)[C@H]1N` [Compound Ib, 2"-Amino-5,2"-dideoxyarbekacin], the Solubility result in the data set “Solubility in water” was “easily soluble in water”. For the same compound, the MIC in the data set with B. cereus ATCC10702 (ATCC10702, Table 3, 27° C., 18 hours, read-out: MIC) is 0.78 µg/mL (≈ 1.46 µM); against E. coli K-12 ML1410 it was 1.56 µg/mL (≈ 2.91 µM); with Escherichia coli NIHJ it was 0.39 µg/mL (≈ 0.728 µM); in the data set on E. coli JR66/W677 it was 3.13 µg/mL (≈ 5.84 µM); with Salmonella typhi T-63 it was 0.78 µg/mL (≈ 1.46 µM); in the data set on Proteus vulgaris OX19 it was 0.78 µg/mL (≈ 1.46 µM). Also, the MIC in data set [2] was 0.78 µg/mL (≈ 1.46 µM); in data set [3], 0.78 µg/mL (≈ 1.46 µM); with P. aeruginosa H9 it was 3.13 µg/mL (≈ 5.84 µM); with P. aeruginosa TI-13, 1.56 µg/mL (≈ 2.91 µM); with S. epidermidis 109, 0.39 µg/mL (≈ 0.728 µM); in [4], 0.39 µg/mL (≈ 0.728 µM). Besides, the MIC in data set [5] was 1.56 µg/mL (≈ 2.91 µM); against P. aeruginosa PST1 it was 6.25 µg/mL (≈ 11.7 µM); in [6], at most 0.2 µg/mL; against S. aureus Smith, at most 0.2 µg/mL; with E. coli K-12 LA290 R55, 0.78 µg/mL (≈ 1.46 µM); in the data set on Serratia marcescens (Table 3, 27° C., 18 hours, read-out: MIC), 6.25 µg/mL (≈ 11.7 µM). The MIC in the data set on Bacillus subtilis PCI219 was at most 0.2 µg/mL; in the data set with E. coli K-12 ML1629, 1.56 µg/mL (≈ 2.91 µM); in data set [8] (setting [11]), 0.2 to 3.13 µg/mL (≈ 0.373 to 5.84 µM). For the same compound, the “antibacterial activity (in words)” value in [7] was “broad and excellent antibacterial activity”. Further, the MIC90 (in general, the lowest concentration that inhibits either 90% of growth or 90% of the strains tested, depending on the study) in data set [8] (MRSA, 18 h) was determined as 1.56 µg/mL (≈ 2.91 µM). The MIC50 (commonly an inhibitory concentration at the 50% level, which refers to growth in some studies and to a panel of isolates in others) in data set [8] (27° C., 18 hours) amounted to 0.78 µg/mL (≈ 1.46 µM). Besides, the “acute toxicity (in words)” value in the data set with mice is recorded as “higher acute toxicity to mice than that of 2"-amino-2"-deoxyarbekacin”. In addition, the 50% lethal dose (LD50) – broadly, the dose expected to kill half of the subjects tested – at 336 h in data set [9] (iv) is 50 to 100 mg/kg.

Regarding `NCC[C@H](O)C(=O)N[C@@H]1C[C@H](N)[C@@H](O[C@H]2O[C@H](CN)CC[C@H]2N)[C@H](O)[C@H]1O[C@H]1O[C@H](CO)[C@@H](O)[C@H](N)[C@H]1O` [ABK, (S)-1-N-(4-amino2-hydroxybutyryl)dibekacin, reference compound], the MIC in [10] fell in the range of 6.25 to 12.5 µg/mL (≈ 11.3 to 22.6 µM); in data set [8] (setting [11]) it was 0.2 to 6.25 µg/mL (≈ 0.362 to 11.3 µM). Besides, in [8] (27° C., 18 hours), the MIC50 stood at 0.39 µg/mL (≈ 0.706 µM). Moreover, in data set [8] (setting [12]), the MIC90 stood at 6.25 µg/mL (≈ 11.3 µM).

As for `NCC[C@H](O)C(=O)N[C@@H]1C[C@H](N)[C@@H](O[C@H]2O[C@H](CN)CC[C@H]2N)[C@H](O)[C@H]1O[C@H]1O[C@H](CO)[C@@H](O)[C@H](N)[C@H]1N` [Compound Ia, 2"-Amino-2"-deoxyarbekacin], the Solubility entry in the data set “Solubility in water” is “easily soluble in water”. Besides, the MIC against B. cereus ATCC10702 (ATCC10702, 18 h) was found to be 3.13 µg/mL (≈ 5.67 µM); against E. coli K-12 ML1410, 1.56 µg/mL (≈ 2.83 µM); with Escherichia coli NIHJ, 0.78 µg/mL (≈ 1.41 µM); against E. coli JR66/W677, 3.13 µg/mL (≈ 5.67 µM); against Salmonella typhi T-63 it was 0.78 µg/mL (≈ 1.41 µM); in the data set with Proteus vulgaris OX19 it was 1.56 µg/mL (≈ 2.83 µM). The MIC in [2] turned out to be 1.56 µg/mL (≈ 2.83 µM); in data set [3] it was 1.56 µg/mL (≈ 2.83 µM); in the data set on P. aeruginosa H9 it was 6.25 µg/mL (≈ 11.3 µM); in the data set on P. aeruginosa TI-13, 3.13 µg/mL (≈ 5.67 µM); in the data set on S. epidermidis 109, 0.78 µg/mL (≈ 1.41 µM); in data set [4], 1.56 µg/mL (≈ 2.83 µM). Besides, the MIC in [5] was 3.13 µg/mL (≈ 5.67 µM); in the data set with P. aeruginosa PST1, 12.5 µg/mL (≈ 22.7 µM); in data set [6], 0.39 µg/mL (≈ 0.707 µM); with S. aureus Smith it was at most 0.2 µg/mL; in the data set with E. coli K-12 LA290 R55, 0.78 µg/mL (≈ 1.41 µM); against Serratia marcescens (18 h) it was 3.13 µg/mL (≈ 5.67 µM). For the same compound, the MIC against Bacillus subtilis PCI219 is 0.2 µg/mL (≈ 0.363 µM); in the data set with E. coli K-12 ML1629 it was 3.13 µg/mL (≈ 5.67 µM); in data set [8] (MRSA, 18 h), 0.2 to 3.13 µg/mL (≈ 0.363 to 5.67 µM). Besides, the MIC50 in [8] (27° C., 18 hours) stood at 0.78 µg/mL (≈ 1.41 µM). Moreover, the MIC90 in data set [8] (setting [12]) worked out at 1.56 µg/mL (≈ 2.83 µM). Further, in data set [9] (single intravenous administration, mice (ICR-strain, 4 weeks old, female), observations for two weeks, read-out: LD50), the LD50 at 336 h is over 100 mg/kg.
